# Data taken from PubChem BioAssay AID330 (DTP/NCI, 2004).
# Values joined by “and” are separate entries in the source; they are usually repeats but may differ in a detail not shown here. Equal values may be shown once. Inconclusive results and toxic doses are left out.
# Tested on: P388 leukemia ip, CD2F1 mice, survival T/C
# Assay: NCI In Vivo Anticancer Drug Screen. Data for tumor model P388 Leukemia (intraperitoneal) in CD2F1 (CDF1) mice
# Conditions: endpoint: median survival time, higher = longer survival
# Summary of the method: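 Mice carrying the transplanted tumor received test compound or vehicle. Survival was recorded in each group, and the value is the treated-group measurement divided by that of the vehicle-treated control group.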
# [1] = dose: 12.5 mg/kg/injection, schedule: Q01DX005 (ip), vehicle: Klucel (hydroxypropylcellulose) (HPC)
# [2] = dose: 50.0 mg/kg/injection, schedule: Q01DX005 (ip), vehicle: Klucel (hydroxypropylcellulose) (HPC)
smiles,measurement,setting,value
O=C(O)C(O)C(O)C(=O)O.[Co+3].[NH-]CC[NH-].[NH-]CC[NH-].[NH-]CC[NH-] (stereo unspecified),T/C,"dose: 50.0 mg/kg/injection, schedule: Q01DX005 (ip), vehicle: saline with Tween-80",104 % of control
same,T/C,"dose: 100.0 mg/kg/injection, schedule: Q01DX005 (ip), vehicle: saline with Tween-80",100 % of control
N#Cc1c2c(n3c1[nH]c(=O)c1ccccc13)CCCC2,T/C,"dose: 60.0 mg/kg/injection, schedule: Q01DX005 (ip), vehicle: saline with Tween-80",105 % of control
same,T/C,"dose: 120.0 mg/kg/injection, schedule: Q01DX005 (ip), vehicle: saline with Tween-80",100 % of control
same,T/C,"dose: 240.0 mg/kg/injection, schedule: Q01DX005 (ip), vehicle: saline with Tween-80",99 % of control
O=C1NC(c2ccccc2)(c2ccccc2)C(=O)N1CN1CCN(CN2C(=O)NC(c3ccccc3)(c3ccccc3)C2=O)CC1,T/C,"dose: 25.0 mg/kg/injection, schedule: Q01DX001 (ip), vehicle: saline with Tween-80",100 % of control
same,T/C,"dose: 50.0 mg/kg/injection, schedule: Q01DX001 (ip), vehicle: saline with Tween-80",95 % of control
same,T/C,"dose: 100.0 mg/kg/injection, schedule: Q01DX001 (ip), vehicle: saline with Tween-80",90 % of control
C[N+]1(C)CCOC(O)(c2ccccc2)C1 (stereo unspecified),T/C,"dose: 6.25 mg/kg/injection, schedule: Q01DX009 (ip), vehicle: saline",104 % of control
same,T/C,"dose: 12.5 mg/kg/injection, schedule: Q01DX009 (ip), vehicle: saline",98 % of control
same,T/C,"dose: 25.0 mg/kg/injection, schedule: Q01DX009 (ip), vehicle: saline",100 % of control
CCCN1CN2C(C)C(c3ccccc3)OC2C(C)(C)C1 (stereo unspecified),T/C,"dose: 50.0 mg/kg/injection, schedule: Q01DX009 (ip), vehicle: saline with Tween-80",112 % of control
same,T/C,"dose: 100.0 mg/kg/injection, schedule: Q01DX009 (ip), vehicle: saline with Tween-80",112 % of control
same,T/C,"dose: 200.0 mg/kg/injection, schedule: Q01DX009 (ip), vehicle: saline with Tween-80",117 % of control
CCCCCc1c(C)[nH]n(C(N)=NCCSCc2nc[nH]c2C)c1=O,T/C,"dose: 60.0 mg/kg/injection, schedule: Q01DX005 (ip), vehicle: Klucel (hydroxypropylcellulose) (HPC)",100 % of control
same,T/C,"dose: 120.0 mg/kg/injection, schedule: Q01DX005 (ip), vehicle: Klucel (hydroxypropylcellulose) (HPC)",102 % of control
same,T/C,"dose: 240.0 mg/kg/injection, schedule: Q01DX005 (ip), vehicle: Klucel (hydroxypropylcellulose) (HPC)",91 % of control
Nc1c(-c2ccc(C3=NCCN3)cc2)[nH]c2cc(C3=NCCN3)ccc12,T/C,"dose: 6.25 mg/kg/injection, schedule: Q01DX005 (ip), vehicle: Klucel (hydroxypropylcellulose) (HPC)",100 % of control
same,T/C,[1],118 % of control
same,T/C,[2],196 % of control
O=[N+]([O-])c1ccc(-[n+]2ccc3ccccc3c2)c([N+](=O)[O-])c1,T/C,"dose: 12.5 mg/kg/injection, schedule: Q01DX005 (ip), vehicle: saline",110 % of control
same,T/C,"dose: 25.0 mg/kg/injection, schedule: Q01DX005 (ip), vehicle: saline",106 % of control
same,T/C,"dose: 50.0 mg/kg/injection, schedule: Q01DX005 (ip), vehicle: saline",104 % of control and 111 % of control
C=CCc1c2[n+](cc3c(OC)c(OC)ccc13)CCc1cc3c(cc1-2)OCO3,T/C,"dose: 0.4 mg/kg/injection, schedule: Q01DX005 (ip), vehicle: saline",107 % of control and 92 % of control
same,T/C,"dose: 0.8 mg/kg/injection, schedule: Q01DX005 (ip), vehicle: saline",99 % of control and 111 % of control
same,T/C,"dose: 1.6 mg/kg/injection, schedule: Q01DX005 (ip), vehicle: saline",100 % of control and 103 % of control
Cc1cccc(C)c1-n1c(C)nc2[nH]cc(C)c2c1=N,T/C,[1],99 % of control
same,T/C,"dose: 25.0 mg/kg/injection, schedule: Q01DX005 (ip), vehicle: Klucel (hydroxypropylcellulose) (HPC)",97 % of control
same,T/C,[2],100 % of control and 97 % of control
COc1cccc(/C=C2\CCc3ccccc3C2=O)c1OC,T/C,"dose: 50.0 mg/kg/injection, schedule: Q01DX009 (ip), vehicle: Klucel (hydroxypropylcellulose) (HPC)",119 % of control
same,T/C,"dose: 100.0 mg/kg/injection, schedule: Q01DX009 (ip), vehicle: Klucel (hydroxypropylcellulose) (HPC)",106 % of control
same,T/C,"dose: 200.0 mg/kg/injection, schedule: Q01DX009 (ip), vehicle: Klucel (hydroxypropylcellulose) (HPC)",110 % of control
O=C(Nc1ccccc1O)/C(Cl)=C/Cl,T/C,"dose: 33.0 mg/kg/injection, schedule: Q01DX009 (ip), vehicle: saline with Tween-80",120 % of control
same,T/C,"dose: 75.0 mg/kg/injection, schedule: Q01DX009 (ip), vehicle: saline with Tween-80",115 % of control
same,T/C,"dose: 100.0 mg/kg/injection, schedule: Q04DX003 (ip), vehicle: saline with Tween-80",105 % of control
same,T/C,"dose: 200.0 mg/kg/injection, schedule: Q04DX003 (ip), vehicle: saline with Tween-80",120 % of control
